# Assays:
# Type in all cases: in vivo
# [1] = system: Frankliniella occidentalis; experiment: Two-plant choice test of thrips repellency after spraying (Examples 1 and 2); details: for repellency against thrips (number of thrips on plant vs water control): 100 μM solution sprayed; for repellency against thrips (number of thrips on plant vs water control) / repellency against Frankliniella occidentalis: thrips released two days after, counted 24 h later; for repellency against Frankliniella occidentalis: 100 μM PDJ sprayed
# Experimental: Then, 100 μM PDJ solution was directly sprayed on one of the two plant individuals by use of a spraying device. On the other one of the two plant individuals, only water was sprayed similarly. This plant individual on which only water was sprayed was a control. Two days after the above treatment, 30 female adult thrips of Frankliniella occidentalis were released at a middle point between the two plant individuals. Twenty-four hours after that release of Frankliniella occidentalis, the number of thrips on each plant individual was counted so that which one of the plant individuals the thrips had moved to was found. With use of 100 μM JA solution, a similar experiment was carried out. Further, similar experiments with use of the 100 μM PDJ solution and the 100 μM JA solution were carried out on tomato (Solanum lycopersicum) three weeks after seeding.
# (§1) Then, 100 μM PDJ solution was sprayed on an entire aerial part of only one of the two plant individuals by use of a spraying device. On the other one of the two plant individuals, only water was sprayed by a similar method. This plant individual on which only water was sprayed was a control. Two days after the above spraying, 30 female adult thrips of Frankliniella occidentalis were released at a middle point between the two plant individuals. Twenty-four hours after that release of Frankliniella occidentalis, the number of thrips on each plant individual was counted so that which one of the plant individuals the thrips had moved to was found.
# Further, the target plant was changed to crown daisy (Glebionis coronaria) of the family Asteraceae, and repellency against thrips was studied similarly.
# [2] = system: Frankliniella intonsa; experiment: Two-plant choice test of thrips repellency after spraying (Example 4); details: 100 μM PDJ sprayed, thrips released two days after, counted 24 h later
# Experimental: as §1, with “intonsa” for “occidentalis”, “intonsa,” for “occidentalis,”
# [3] = system: Frankliniella occidentalis; experiment: Spraying time relative to development of fourth true leaf of tomato, thrips count (Examples 6 and 7); details: counted six days after release
# Experimental: Then, 100 μM PDJ solution was sprayed on an entire aerial part of only one of the two plant individuals by use of a spraying device. On the other one of the two plant individuals, only water was sprayed by a similar method. This plant individual on which only water was sprayed was a control. The above spraying was carried out at time points 3 days, 7 days, 10 days and 15 days after the start of development of the fourth true leaf. Four days after the above spraying, 30 female adult thrips of Frankliniella occidentalis were released at a middle point between the two plant individuals. Six days after that release of Frankliniella occidentalis, the number of thrips on the fourth true leaf was counted. […] The number of thrips attached to the fourth true leaf was approximately 5% of that of the control in the case of the spraying carried out at the time point 3 days after the start of the development of the fourth true leaf, approximately 10% of that of the control in the case of the spraying carried out at the time point 7 days after the start of the development, approximately 40% of that of the control in the case of the spraying carried out at the time point 10 days after the start of the development, and approximately 50% of that of the control in the case of the spraying carried out at the time point 15 days after the start of the development. In this way, it was clarified that in a case where the spraying was carried out within 7 days from the start of development of a new leaf of a plant, repellency against thrips given to the plant is higher than that in a case where spraying is carried out more than 7 days after the start of the development. In a greenhouse whose room temperature was kept in a range of 20° C. to 25° C., two plant individuals of tomato (Solanum lycopersicum) (approximately 1 to 1.5 months after seeding), which had developed 3 true leaves, were placed apart from each other such that a distance of […] was provided and kept between these plant individuals. Then, 100 μM PDJ solution was sprayed on an entire aerial part of only one of the two plant individuals by use of a spraying device. At this time point, the fourth true leaf was not yet developed. On the other one of the two plant individuals, only water was sprayed by a similar method. This plant individual on which only water was sprayed was a control. Four days after the above spraying, 30 female adult thrips of Frankliniella occidentalis were released at a middle point between the two plant individuals. Six days after that release of Frankliniella occidentalis, the number of thrips on the fourth true leaf was counted. […] The number of thrips attached to the fourth true leaf was approximately 100% of that of the control.
# [4] = system: Frankliniella occidentalis; experiment: Repeated spraying on tomato, thrips count on third and higher-order true leaves (Example 5); details: counted forty days after release
# Experimental: Then, 100 μM PDJ solution was directly prayed on an entire aerial part of only one of the two plant individuals by use of a spraying device. The above spraying was carried out 3 times, 4 times or 5 times at intervals of 5 to 7 days. On the other one of the two plant individuals, only water was sprayed by a similar method. This plant individual on which only water was sprayed was a control. Four days after the last spraying, 30 female adult thrips of Frankliniella occidentalis were released at a middle point between the two plant individuals. Forty days after that release of Frankliniella occidentalis, the number of thrips on the third and higher-order true leaves was counted. […] In the case of the plant individual on which the PDJ solution was sprayed 3 times, the total number of thrips attached to the third and higher-order true leaves was approximately 20% relative to that of the control. In the case of the plant individual on which the PDJ solution was sprayed 4 times or 5 times, the total number of thrips attached to the third and higher-order true leaves was 0% relative to that of the control. In this way, it was clarified that in a case where spraying is carried out 4 times or 5 times at intervals of 5 days to 7 days, repellency against thrips is higher than that in a case where spraying is carried out 3 times.
# [5] = system: Thrips tabaci Lindeman; experiment: Two-plant choice test of thrips repellency after spraying (Example 3); details: 100 μM PDJ sprayed, thrips released two days after, counted 24 h later
# Experimental: Then, 100 μM PDJ was sprayed on an entire aerial part of only one of the two plant individuals by use of a spraying device. On the other one of the two plant individuals, only water was sprayed by a similar method. This plant individual on which only water was sprayed was a control. Two days after the above spraying, 30 female adult thrips of Thrips tabaci Lindeman were released at a middle point between the two plant individuals. Twenty-four hours later, the number of Thrips tabaci Lindeman on each plant individual was counted so that which one of the plant individuals the thrips had moved to was found. As a result, with regard to the green pepper (bell pepper) (Capsicum annuum L. ‘grossum’), an attachment rate of Thrips tabaci Lindeman was approximately 40% relative to that of the control. Meanwhile, with regard to cabbage (Brassica oleracea var. capitata), an attachment rate of Thrips tabaci Lindeman was approximately 40% relative to that of the control.
# [6] = 100 μM PDJ sprayed when fourth true leaf was not yet developed (Example 7)
molecule,measurement,setting,value
"CC/C=C\CC1C(=O)CCC1CC(=O)OC (stereo not shown) [JA, methyl jasmonate, reference compound]",repellency against thrips (number of thrips on plant vs water control),[1]; Arabidopsis thaliana,can give repellency against thrips
same,repellency against thrips (number of thrips on plant vs water control),[1]; tomato (Example 1),can give repellency against thrips
prohydrojasmon [PDJ],repellency against Frankliniella intonsa,[2]; cabbage,sufficient repellency
same,repellency against Frankliniella intonsa,[2]; chrysanthemum,sufficient repellency
same,repellency against Frankliniella intonsa,[2]; cucumber,sufficient repellency
same,repellency against Frankliniella intonsa,[2]; green pepper,sufficient repellency
same,repellency against Frankliniella intonsa,[2]; strawberry,sufficient repellency
same,repellency against Frankliniella intonsa,[2]; tomato,sufficient repellency
same,"number of thrips attached to the fourth true leaf, of that of the control",[3]; 100 μM PDJ sprayed 3 days after start of development of fourth true leaf,approximately 5%
same,"number of thrips attached to the fourth true leaf, of that of the control",[3]; 100 μM PDJ sprayed 7 days after start of development of fourth true leaf,approximately 10%
same,"number of thrips attached to the fourth true leaf, of that of the control",[3]; 100 μM PDJ sprayed 10 days after start of development of fourth true leaf,approximately 40%
same,"number of thrips attached to the fourth true leaf, of that of the control",[3]; 100 μM PDJ sprayed 15 days after start of development of fourth true leaf,approximately 50%
same,"number of thrips attached to the fourth true leaf, of that of the control",[3]; [6],approximately 100%
same,total number of thrips attached to the first to third true leaves vs control,[3]; [6],much smaller than that of the control
same,total number of thrips attached to the third and higher-order true leaves relative to that of the control,[4]; 100 μM PDJ sprayed 3 times at intervals of 5 to 7 days,approximately 20%
same,total number of thrips attached to the third and higher-order true leaves relative to that of the control,[4]; 100 μM PDJ sprayed 4 times at intervals of 5 to 7 days,0%
same,total number of thrips attached to the third and higher-order true leaves relative to that of the control,[4]; 100 μM PDJ sprayed 5 times at intervals of 5 to 7 days,0%
same,repellency against thrips (number of thrips on plant vs water control),[1]; Arabidopsis thaliana,can give repellency against thrips
same,repellency against Frankliniella occidentalis,[1]; cabbage,sufficient repellency
same,repellency against Frankliniella occidentalis,[1]; chrysanthemum,sufficient repellency
same,repellency against thrips,"[1]; crown daisy (Glebionis coronaria), studied similarly to Example 2",repellency against thrips is given
same,repellency against Frankliniella occidentalis,[1]; cucumber,sufficient repellency
same,repellency against Frankliniella occidentalis,[1]; green pepper,sufficient repellency
same,repellency against Frankliniella occidentalis,[1]; strawberry,sufficient repellency
same,repellency against thrips (number of thrips on plant vs water control),[1]; tomato (Example 1),can give repellency against thrips
same,repellency against Frankliniella occidentalis,[1]; tomato (Example 2),sufficient repellency
same,attachment rate of Thrips tabaci Lindeman relative to that of the control,[5]; cabbage,approximately 40%
same,attachment rate of Thrips tabaci Lindeman relative to that of the control,[5]; green pepper,approximately 40%

# — patent publication US20190069548A1, “AGENT FOR CONTROLLING THRIPS AND USE THEREOF” (RIKEN, priority 2016, published 2019)
